Measured values: paper PMC3636874, “An Antedrug of the CXCL12 Neutraligand Blocks Experimental Allergic Asthma without Systemic Effect in Mice” (The Journal of Biological Chemistry, 2013)
Read-outs that look alike come from different tables or passages of the source.

Legend:
CXCL12 binding to CXCR4 = biological target: T1, CXCL12 binding to CXCR4 (Homo sapiens, UniProt P48061); test: FRET-based binding of CXCL12-TR to EGFP-hCXCR4 (competition); details: dose-dependent
T1 construct: expressed in transfected cells
Experimental: FRET-based binding experiments were carried out as described ([26], [46]). Human embryonic kidney 293 cells expressing the fusion receptor EGFP-hCXCR4 were harvested in PBS (137 mM NaCl, 2.7 mM KCl, 4.3 mM Na2PO4·7H2O, 1.4 mM KH2PO4, pH 7.4) supplemented with 5 mM EDTA, pH 7.4, centrifuged, and resuspended in HEPES-bovine serum albumin (BSA) buffer (10 mM HEPES, 137.5 mM NaCl, 1.25 mM MgCl2, 1.25 mM CaCl2, 6 mM KCl, 10 mM glucose, 0.4 mM NaH2PO4, 0.1% bovine serum albumin (w/v), pH 7.4). Cells were used at a concentration of 10^6 cells/ml. Apparent affinities of the different ligands were determined by real-time fluorescence monitoring ligand-receptor interactions. […] Fluorescence emitted at 510 nm (excitation at 470 nm) was recorded at 21 °C using a Fluorolog 2 spectrofluorimeter (SPEX) and sampled every 0.3 s. Binding of CXCL12-TR to EGFP-labeled CXCR4 was detected as a reversible decline of emission at 510 nm, due to energy transfer from excited EGFP to TR. For competition experiments, the fluorescent chemokine was preincubated for 1 h at room temperature with or without various concentrations of each chalcone. Then the premix was added, and fluorescence was recorded until equilibrium was reached (300 s). Data were analyzed using Kaleidagraph 3.08 software (Synergy Software, Reading, PA).

[1] = Chemical stability in PBS pH 7.4; type: physicochemical
Experimental: Solubility and stability studies were performed on a Gilson HPLC system with a photodiode array detector, an autosampler, and a Valco injector. Data acquisition and processing were performed with Trilution LC version 2.0 software. Measurements were carried out at 21 ± 1 °C. A 2.6-μm Kinetex column (50 × 4.6 mm) was used for stability studies in biological media, and a 5-μm Luna C18(2) column (50 × 4.6 mm) was used for solubility and chemical stability analysis. Both columns were purchased from Phenomenex. The injection volume was 20 μl, the mobile phase flow rate was 2 ml/min, and the following program was applied for the elution: 0–0.2 min, 0% B; 0.2–2.7 min, 0–100% B; 2.7–3.2 min, 100% B; 3.2–3.4 min, 100–0% B; 3.4–6.1 min, 0% B. Solvent B was HPLC grade acetonitrile (Sigma-Aldrich CHROMASOLV). The aqueous solvent contained 0.1% trifluoroacetic acid, and the detection wavelength was 365 nm.
Stability of compounds was assessed in PBS, pH 7.4, with or without 10% HP-βCD at 20 °C up to 24 h. For each compound, the 10 mM DMSO stock solution was diluted to a final incubation concentration of 10 μM with 0.1% DMSO. 20 μl of sample were removed at t0, 1, 2, 4, 6, 8, 10, and 24 h and directly injected onto the HPLC. The percentage of remaining test compound relative to t0 was measured by monitoring the peak area on the chromatogram.

[2] = General toxicity in vivo: body and spleen weight; design: species or system mouse; details: for Weight, Body (percentage of control animals) / Weight, Spleen: three days
Experimental: General toxicity was evaluated in vivo in mice that received CN-chalcone 4 intraperitoneally at a dose of 350 μmol/kg (100 mg/kg) per day during three consecutive days. As reported in Table 2, there was no body or spleen weight loss nor any modification of cytochrome c oxidase activity in lung and heart, indicating no toxicity of CN-chalcone 4 administered at the highest active dose.

Cytochrome c oxidase = Cytochrome c oxidase activity in lung and heart homogenates of treated mice; type: in vivo, mouse; details: intraperitoneal 350 μmol/kg per day, three days
Experimental: Lung and heart were homogenized separately with an UltraTurax® (IMLAB, Lille, France) in PBS, pH 7.4 (one organ in 1 ml of buffer). Lung homogenate was diluted at 1:2 and heart homogenate at 1:5 in PBS. 100 μl of each diluted homogenate were placed in a microplate, and 100 μl of assay reagent (10 mM tetramethyl-p-phenylenediamine, 2 mM sodium ascorbate, 20 mM KH2PO4) were added. The microplate was placed immediately in a microplate spectrophotometer reader, and optical density kinetic (λ = 610 nm) was measured every 20 s for 30 min. Results are expressed as Vmax/100 μg of protein (OD/min/100 μg of protein).

[3] = design: method as in PMID 24900366; details: cited from earlier work
[4] = design: method as in PMID 24900366; details: cited from earlier work; remark: listed apart in the source
[5] = OVA-challenged mice, intraperitoneal 350 μmol/kg per day

| SMILES | concentration giving maximal inhibition of CXCL12 binding to CXCR4 (CXCL12 binding to CXCR4) | half-life at 10 μM ([1]; PBS pH 7.4, 20 °C, read-out: Stability half-life (t1/2), PBS (converted)) | half-life at 10 μM ([1]; PBS with 10% HP-βCD, PBS pH 7.4 with 10% HP-βCD, 20 °C, read-out: Stability half-life (t1/2), PBS, 10% β-cyclodextrine (converted)) | Weight, Body (percentage of control animals) [2, 5] | Weight, Spleen [2, 5] | Weight, Body (percentage of control animals) ([2]; mice without OVA, intraperitoneal 350 μmol/kg (100 mg/kg) per day, carboxymethylcellulose) | Weight, Spleen ([2]; mice without OVA, intraperitoneal 350 μmol/kg per day) | general toxicity in vivo (body and spleen weight, cytochrome c oxidase activity in lung and heart) ([2]; mice, intraperitoneal 350 μmol/kg (100 mg/kg) per day during three consecutive days) | Cytochrome c oxidase (Vmax), Heart (×10^3) (Cytochrome c oxidase; OVA-challenged mice) | Cytochrome c oxidase (Vmax), Lung (×10^2) (Cytochrome c oxidase; OVA-challenged mice) | Cytochrome c oxidase (Vmax), Heart (×10^3) (Cytochrome c oxidase; mice without OVA) | Cytochrome c oxidase (Vmax), Lung (×10^2) (Cytochrome c oxidase; mice without OVA) | Stability half-life (t1/2), PBS ([3]; PBS pH 7.4) | Stability half-life (t1/2), PBS, 10% β-cyclodextrine ([3]; PBS with 10% HP-βCD) | percentage of starting molecule recovered, PBS ([3]; at 10 h) | percentage of starting molecule recovered, PBS, 10% β-cyclodextrine ([3]; at 10 h) | Stability half-life (t1/2), lung homogenate ([4]; mouse lung homogenate) | percentage of starting molecule recovered, lung homogenate ([4]; time not given) |
| --- | --- | --- | --- | --- | --- | --- | --- | --- | --- | --- | --- | --- | --- | --- | --- | --- | --- | --- |
| COc1cc(/C=C(\C#N)C(=O)c2ccc(Cl)cc2)ccc1O [CN-chalcone 4, (E)-2-(4-chlorobenzoyl)-3-(4-hydroxy-3-methoxyphenyl)acrylonitrile] | > 1 µM | 6 h | 16.3 h | 99.6 ± 6% | 123 ± 4 mg | 99.6 ± 6% | 125 ± 11 mg | no toxicity | 29.9 ± 3.5 OD/min/100 μg of protein (×10^ | 12.7 ± 1.6 OD/min/100 μg of protein (×10^ | 28.5 ± 3.2 OD/min/100 μg of protein (×10^ | 13.8 ± 2.8 OD/min/100 μg of protein (×10^ |  |  |  |  |  |  |
| COc1cc(/C=C/C(=O)c2ccc(Cl)cc2)ccc1O [chalcone 4] |  |  |  |  |  |  |  |  |  |  |  |  | > 10 h | > 10 h | 98% | 95% | > 6 h | 60% |
